Measured values taken from patent US8912338B2, “Pesticidal compositions” (Dow AgroSciences LLC, priority 2010, dated 2014).

Columns and labels:
[1] = test system: Cotton Aphid (Aphis gossypii); test: Insecticidal test for cotton aphid in a foliar spray assay; assay type: in vivo; conditions: 72 h, 200 ppm foliar spray on squash or cotton seedlings, live aphids counted after three days, Abbott's corrected % control, read-out: APHIGO % Ctrl @ 200 ppm
Procedure: Squash or cotton seedlings with fully expanded cotyledon leaves were trimmed to one cotyledon per plant and infested with wingless adult and nymph stage cotton aphid (APHIGO) one day prior to chemical application. Each plant was examined before chemical application to ensure uniform infestation (ca. 30-70 aphids per plant). Compounds (2 mg) were dissolved in 2 mL of acetone/methanol (1:1) solvent, forming stock solutions of 1000 ppm. The stock solutions were diluted 5× with 0.025% Tween 20 in H2O to obtain a solution at 200 ppm. A hand-held Devilbiss aspirator type sprayer was used to apply the spray solutions until runoff to both sides of the squash cotyledon leaves. Four plants (4 replications) were used for each concentration of each compound. Reference plants (solvent check) were sprayed with the diluent only. Treated plants were held in a holding room for three days at approximately 25° C. and 40% RH before the number of live cotton aphids on each plant was recorded. Insecticidal activity data presented in Table 3 were generated by using Abbott's correction formula: Corrected%Control=100*(X−Y)/X • where X=No. of live aphids on solvent check plants • Y=No. of live aphids on treated plants

[2] = test system: Green Peach Aphid (Myzus persicae); test: Insecticidal test for green peach aphid in foliar spray assay; assay type: in vivo; conditions: 72 h, 200 ppm foliar spray on cabbage seedlings, live aphids counted after three days, Abbott's corrected % control, read-out: MYZUPE % Ctrl @ 200 ppm
Procedure: Certain molecules disclosed in this document were tested against MYZUPE using procedures described in the following example. In the reporting of the results, the “MYZUPE, APHIGO and BEMITA Rating Table” was used (See Table Section).
Cabbage seedlings grown in 3-inch pots, with 2-3 small (3-5 cm) true leaves, were used as test substrate. The seedlings were infested with 20-50 green peach aphids (wingless adult and nymph stage) one day prior to chemical application. Four pots with individual seedlings were used for each treatment. Compounds (2 mg) were dissolved in 2 mL of acetone/methanol (1:1) solvent, forming stock solutions of 1000 ppm. The stock solutions were diluted 5× with 0.025% Tween 20 in H2O to obtain the test solution at 200 ppm. A hand-held Devilbiss sprayer was used for spraying a solution to both sides of cabbage leaves until runoff. Reference plants (solvent check) were sprayed with the diluent only. Treated plants were held in a holding room for three days at approximately 25° C. and 40% relative humidity (RH) prior to grading. Evaluation was conducted by counting the number of live aphids per plant under a microscope. Insecticidal activity data presented in Table 3 were generated by using Abbott's correction formula: Corrected%Control=100*(X−Y)/X • where X=No. of live aphids on solvent check plants • Y=No. of live aphids on treated plants

[3] = test system: Sweetpotato Whitefly (Bemisia tabaci); test: Insecticidal test for sweetpotato whitefly in foliar spray assay; assay type: in vivo; conditions: 200 ppm foliar spray on cotton plants infested with eggs, live nymphs counted after 8-9 days, Abbott's corrected % control, read-out: BEMITA % Ctrl @ 200 ppm
Procedure: Cotton plants were used as test substrate and were grown in 3-inch pots and pruned until only 1 small (3-5 cm) true leaf remained. The plants were then placed in a room with whitefly ([…]) adults and allowed to be infested with eggs. After a 2-3 day egg-laying period, plants were taken from the adult whitefly room and the adults were removed from the leaves using compressed air delivered through a hand-held Devilbiss sprayer (23 psi). Plants infested with eggs (100-300 eggs per plant) were placed in a controlled-environment room for 5-6 days at 82° F. and 50% RH until approximately 50% egg hatch. Four cotton plants (4 replicates) were used for each treatment. Compounds (2 mg) were dissolved in 1 mL of acetone solvent, forming stock solutions of 2000 ppm. The stock solutions were diluted 10× with 0.025% Tween 20 in H2O to obtain the test solution of 200 ppm. A hand-held Devilbiss sprayer was used for spraying a solution to both sides of cotton leaf until runoff. Reference plants (solvent check) were sprayed with the diluent only. Treated plants were held in a holding room for 8-9 days at approximately 82° F. and 50% RH prior to grading. Evaluation was conducted by counting the number of live nymphs per plant under a microscope. Insecticidal activity data presented in Table 3 were generated by using Abbott's correction formula: Corrected%Control=100*(X-Y)/X • where X=No. of live nymphs on solvent check plants • Y=No. of live nymphs on treated plants […]

SMILES | inhibition at 200 ppm [1] [%] | inhibition at 200 ppm [2] [%] | inhibition at 200 ppm [3] [%] | melting point [°C]
CCOC(=O)CCC(=O)N(C)c1nnc(-c2cccnc2)s1 [Compound 12] | 80 to 100 | 0 to 80 | 0 to 80 | 137 to 139
CSCCCC(=O)N(C)c1nnc(-c2cccnc2)s1 [Compound 6] | 80 to 100 | 80 to 100 | 0 to 80 | 93 to 95
CN(C(=O)CCSCc1ccccc1)c1nnc(-c2cccnc2)s1 [Compound 11] | 0 to 80 | 0 to 80 | 0 to 80 | 116 to 118
CN(C(=O)C1(C[S+](C)[O-])CC1)c1nnc(-c2cccnc2)s1 (stereo not shown) [Compound 45] | 80 to 100 | 80 to 100 | 0 to 80 | 166 to 168
CO/N=C(\C)CCC(=O)N(C)c1nnc(-c2cccnc2)s1 [Compound 48, 4-[(E)-methoxyimino]-pentanoic acid methyl-(5-pyridin-3-yl-[1,3,4]thiadiazol-2-yl)-amide] | 80 to 100 | 80 to 100 | 0 to 80 | 114 to 121
CN(C(=O)CCNC(=O)OC(C)(C)C)c1nnc(-c2cccnc2)s1 [Compound 38] | 80 to 100 | 80 to 100 | 0 to 80 | 41 to 48
CCSCCC(=O)N(C)c1nnc(-c2cccnc2)s1 [Compound 2] | 80 to 100 | 80 to 100 | 0 to 80 | 70 to 72
CC(C)SCCC(=O)N(C)c1nnc(-c2cccnc2)s1 [Compound 4] | 80 to 100 | 80 to 100 | 0 to 80 | 100 to 105
COC(=O)CCC(=O)N(C)c1nnc(-c2cccnc2)s1 [Compound 56, methyl 4-(methyl-(5-(pyridin-3-yl)-1,3,4-thiadiazol-2-yl)amino)-4-oxobutanoate] | 80 to 100 | 0 to 80 | < 0 | 152 to 154
CSCC(=O)N(C)c1nnc(-c2cccnc2)s1 [Compound 29] | 80 to 100 | 80 to 100 | 0 to 80 | 135 to 139
CSCC1(C(=O)N(C)c2nnc(-c3cccnc3)s2)CC1 [Compound 44] | 80 to 100 | 80 to 100 | < 0 | 144 to 147
CCSCC(=O)N(C)c1nnc(-c2cccnc2)s1 [Compound 8] | 80 to 100 | 80 to 100 | < 0 | 87 to 92
COCCC(=O)N(C)c1nnc(-c2cccnc2)s1 [Compound 3] | 80 to 100 | 80 to 100 | 0 to 80 | 92 to 97.5
